In US7141661B2, “Non-steroidal anti-inflammatory drug activated gene with anti-tumorigenic properties” (The United States of America as represented by the …, priority 2000, dated 2006):

Key:
Format in all cases: cell-based, human
NAG-1 = test: Northern blot analysis of NAG-1 mRNA expression in HCT-116 cells; details: for NAG-1 Induction (mRNA) Fold: HCT-116, 24 hr in absence of serum, relative NAG-1 mRNA over vehicle control (1.0), tested over the concentration range listed; for NAG-1 expression induction: HCT-116, at any concentration tested
Method: Upon reaching 60–80% confluence in 10 cm plates, the cells were treated at indicated concentrations and times with either different NSAIDs or PPARγ ligands in the absence of serum. Total RNAs were isolated using TRIzol reagent (Life Technologies) according to the manufacturer's protocol. For Northern blot analysis, […] of total RNA was denatured at 55° C. for 15 min and separated in a 1.2% agarose gel containing 2.2 M formaldehyde, and transferred to Hybond-N membrane ([…]). After fixing the membrane by UV, blots were prehybridized in hybridization solution (Rapid-hyb buffer, […]) for 1 hr at 65° C. followed by hybridization with cDNA labeled with [α-^32P]dCTP by random primer extension (DECAprimeII kit, Ambion). The probes used were either full-length NAG-1 fragment or PTGFB clone (generously provided by Dr. Bento-Soar of the University of Iowa). After 4 hr incubation at 65° C., the blots were washed once with 2×SSC/0.1% SDS at RT and twice with 0.1×SSC/0.1% SDS at 65° C. Messenger RNA abundance Was estimated by intensities of the hybridization bands of autoradiographs using Scion Image (Scion). Equivalent loading of RNA samples was confirmed by hybridizing the same blot with a ^32P-labeled b-actin probe which recognizes RNA of approximately 2 kb.
To determine whether other NSAIDs increased apoptosis and NAG-1 expression, tests were conducted to determine whether variants of NSAIDs induced NAG-1 gene expression and NSAID-induced apoptosis. Aspirin, ibuprofen, indomethacin, and sulindac sulfide were selected since they are known COX inhibitors. […] HCT-116 cells were treated with different NSAIDs (vehicle, 0.2% DMSO; aspirin, 10 mM; ibuprofen, 1 mM; sodium salicylate, 5 mM; sulindac sulfide, 50 μM; sulindac, 40 μM; acetaminophen, 100 μM) for 24 hr in the absence of serum. Northern analysis was performed using NAG-1 and β-actin as probes. Total RNAs were isolated from NSAID-treated HCT-116 cells after 24 hr treatment and Northern blot was performed using NAG-1 cDNA as a probe (data not shown). […] Each of the doses were as follows: aspirin (1, 5, 10 mM); ibuprofen (100, 500, 1000 μM); salicylate (1, 2.5, 5 mM); sulindac sulfide (1, 10, 50 μM); sulindac (10, 20, 40 μM); acetaminophen (10, 50, 100 μM). After 48 hr treatment with NSAIDs in the presence of serum, cells were harvested and assayed as described in FIG. 1C. Apoptosis detected by PI staining was measured by FACS, as known in the art (FIG. 2A; HCT-116 cells were treated with different NSAIDs (vehicle, 0.2% DMSO; Aspirin, 10 mM; Ibuprofen, 1 mM; Sodium Salicylate, 5 mM; Sulindac Sulfide, 50 μM; Sulindac, 40 μM; Acetaminophen, 100 μM) for 24 hr in the absence of serum. Northern analysis was performed using NAG-1 and β-actin as probes. The open bars represent the relative expression of NAG-1 mRNA over the control (vehicle). The hatched bars represent the relative apoptosis ratio over vehicle treatment by PI staining methods. N=3±S.D.).
In the Table below, HCT-116 cells were treated with different NSAIDs (vehicle, 0.2% DMSO) for 24 hr in the absence of serum. Northern analysis was performed using NAG-1 and β-actin as probes. The data represent relative expression of NAG-1 mRNA over the control (1.0). Each NSAID was tested at 3 different concentrations and maximally effective concentration used for apoptosis determination. Apoptosis ratio by PI staining was measured by FACS. After 48 hr treatment with NSAIDs in the presence of serum, cells were harvested and assayed. The data represent relative apoptosis ratio over vehicle treatment by PI staining methods. TACS™ Annexin V-FITC kit was also used to confirm apoptosis.

HCT-116 cells = test: Apoptosis and cell cycle by PI staining / FACS in HCT-116 cells; details: HCT-116, 48 hr in presence of serum, maximally effective concentration, FACS
Method: To determine whether NAG-1 gene expression is associated with NSAID-induced apoptosis or altered cell cycle kinetics, flow cytometric analysis of the distribution of cells at various stages of the cell cycle was performed. Apoptosis and cell cycle kinetics of INDO-treated HCT-116 cells were measured at different time points. HCT-116 cells were treated with INDO, stained with PI, and analyzed by flow cytometry. Seven thousand five hundred cells were examined by flow cytometry by gating on an area versus width dot plot to exclude cell debris and cell aggregates. Apoptosis is represented by the fold increase in sub-G1 population over 0 hr treatment.
The DNA content for NSAIDs, PPARγ ligand, and vehicle treated HCT-116 cells was determined by FACS. Cells were plated at a density of 4×10^5 cells/well in 2 ml of medium in 6 well plates, incubated for 16 h, and then treated with NSAIDs or TGZ in the presence of serum. After treatment, the cells were harvested, washed with PBS, fixed by the slow addition of cold 70% ethanol to a total of 1 ml, and stored overnight at 4° C. The fixed cells were pelleted, washed once with PBS, and stained in 1 ml of 20 μg/ml of propidium iodide (PI), 1 mg/ml RNase in PBS for 20 min. Seven thousand five hundred cells were examined by flow cytometry using Becton Dickinson FACSort equipped with CellQuest software, by gating on an area versus width dot plot to exclude cell debris and cell aggregates. Each cell cycle distribution was analyzed by the McCycle program using one cell cycle parameter. Apoptosis was measured based on the level of sub-diploid DNA contained in cells following treatment with NSAIDs or TGZ using CellQuest software.
Northern analysis was performed using NAG-1 and β-actin as probes. The data represent relative expression of NAG-1 mRNA over the control (1.0). Each NSAID was tested at 3 different concentrations and maximally effective concentration used for apoptosis determination. Apoptosis ratio by PI staining was measured by FACS. […] The data represent relative apoptosis ratio over vehicle treatment by PI staining methods. TACS™ Annexin V-FITC kit was also used to confirm apoptosis.

NAG-1 promoter = NAG-1 promoter (pNAG2021) luciferase reporter assay in transiently transfected HCT-116 cells; details: pNAG2021 in HCT-116, 24 hr; TGZ 10 μM, sulindac 40 μM, acetaminophen 100 μM, other NSAIDs; versus vehicle

CCCCC/C=C/C=C1/C(=O)C=C[C@@H]1C/C=C\CCCC(=O)O [15d-PGJ2, 15-deoxy-Δ^12,14-prostaglandin J2]
Induction of NAG-1 gene expression (NAG-1; HCT-116, 1 μM): 3 fold

CC(=O)Nc1ccc(O)cc1 [Acetaminophen]
NAG-1 Induction (mRNA) Fold (NAG-1): 0.9 Fold | NAG-1 expression induction (NAG-1): did not induce NAG-1 expression | Apoptosis (PI Staining), relative apoptosis ratio over vehicle (HCT-116 cells): 0.9 ± 0.153 | Induction of luciferase reporter activity (2021 bp NAG-1 promoter) (NAG-1 promoter): did not increase luciferase activity

Cc1ccc(-c2cc(C(F)(F)F)nn2-c2ccc(S(N)(=O)=O)cc2)cc1 [Celecoxib]
NAG-1 Induction (mRNA) Fold (NAG-1): 1.0 Fold | Apoptosis (PI Staining), relative apoptosis ratio over vehicle (HCT-116 cells): 0.722 ± 0.098

CC1(C)OC(=O)C(c2cccc(F)c2)=C1c1ccc(S(C)(=O)=O)cc1 [DFU]
NAG-1 Induction (mRNA) Fold (NAG-1): 1.0 Fold | Apoptosis (PI Staining), relative apoptosis ratio over vehicle (HCT-116 cells): 0.54 ± 0.091

O=C(O)Cc1ccccc1Nc1c(Cl)cccc1Cl [Diclofenac]
NAG-1 Induction (mRNA) Fold (NAG-1): 3.7 Fold | Apoptosis (PI Staining), relative apoptosis ratio over vehicle (HCT-116 cells): 4.0 ± 0.315

CC(C)Cc1ccc(C(C)C(=O)O)cc1 (stereo not drawn) [Ibuprofen]
NAG-1 Induction (mRNA) Fold (NAG-1): 4.5 Fold | Apoptosis (PI Staining), relative apoptosis ratio over vehicle (HCT-116 cells): 4.3 ± 0.666

CS(=O)(=O)Nc1ccc([N+](=O)[O-])cc1OC1CCCCC1 [NS-398]
NAG-1 Induction (mRNA) Fold (NAG-1): 0.9 Fold | Apoptosis (PI Staining), relative apoptosis ratio over vehicle (HCT-116 cells): 1.029 ± 0.109

CN1C(C(=O)Nc2ccccn2)=C(O)c2ccccc2S1(=O)=O [Piroxicam]
NAG-1 Induction (mRNA) Fold (NAG-1): 2.5 Fold | Apoptosis (PI Staining), relative apoptosis ratio over vehicle (HCT-116 cells): 1.9 ± 0.145

O=C([O-])c1ccccc1O.[Na+] [Sodium Salicylate]
NAG-1 Induction (mRNA) Fold (NAG-1): 3.0 Fold | Apoptosis (PI Staining), relative apoptosis ratio over vehicle (HCT-116 cells): 1.8 ± 0.252

CSc1ccc(/C=C2/C(C)=C(CC(=O)O)c3cc(F)ccc32)cc1 [Sulindac Sulfide]
NAG-1 Induction (mRNA) Fold (NAG-1): 4.6 Fold | Apoptosis (PI Staining), relative apoptosis ratio over vehicle (HCT-116 cells): 4.3 ± 0.737

CC1=C(CC(=O)O)c2cc(F)ccc2/C1=C\c1ccc(S(C)(=O)=O)cc1 [Sulindac Sulfone]
NAG-1 Induction (mRNA) Fold (NAG-1): 1.3 Fold | Apoptosis (PI Staining), relative apoptosis ratio over vehicle (HCT-116 cells): 1.6 ± 0.043

CC1=C(CC(=O)O)c2cc(F)ccc2/C1=C\c1ccc([S+](C)[O-])cc1 (stereo not drawn) [Sulmdac, Sulindac]
NAG-1 Induction (mRNA) Fold (NAG-1): 1.5 Fold | NAG-1 expression induction (NAG-1): did not induce NAG-1 expression | Apoptosis (PI Staining), relative apoptosis ratio over vehicle (HCT-116 cells): 1.1 ± 0.173 | Induction of luciferase reporter activity (2021 bp NAG-1 promoter) (NAG-1 promoter): did not increase luciferase activity
